Results as given in patent US20190046600A1, “COMPOSITIONS AND USES THEREOF” (priority 2016, published 2019).
Blank lines part the entries; values can stand above or below the molecule they belong to. Square brackets hold non-standard residues; d marks the D form. Ends that are not written are not given here. Peptide text beside a SMILES is read from it. Phe(4-guanidino) = N=C(N)Nc1ccc(C[C@H](N)C(=O)O)cc1; Abu(4-SO3H) = N[C@@H](CCS(=O)(=O)O)C(=O)O

Assays:
NCI-H460 cells [1] = settings: 96 h
Experimental: Methods measuring cell viability include the use of alamarBlue® cell viability reagent (Life Technologies, Inc.) (resazurin) with fluorescence detection.
1) NCI-H460 cells were grown in Ham's F12 media supplemented with 10% FBS. 2) Cells were harvested and seeded into 96-well plates at 500 cells/well. 3) Compounds were made up from stock solutions and added directly to cells in doubling dilutions starting at 200 μM. Final DMSO concentration was 0.2%. 4) Cells were grown with compound for 96 hours at 37° C. 5% CO2 in a humidified atmosphere. 5) A resazurin dye composition (AlamarBlue® cell viability reagent (Life Technologies, Inc.)) 10% (v/v) was then added and incubated for a further 4 hours, and fluorescent product detected using the BMG FLUOstar plate reader. 6) Media only background readings were subtracted before data were analysed using a 4-parameter logistic equation in GraphPad Prism.

[2] = tested on: NCI H460 Human Non-small cell lung cancer; experiment: Light microscopy of treated cell cultures; assay type: cell-based; settings: versus DMSO control
Experimental: To investigate further the mechanism of action of the anionic warhead, cultures of NCI H460 Human Non-small cell lung cancer were exposed to HILR-025 and HILR-D-07 and observed using light microscopy. A comparative cell culture was treated with DMSO to provide a negative control.

[3] = tested on: NCI-H460 human non-small-cell lung cancer cells; experiment: Cell survival with or without 2-deoxyglucose, alamarBlue; assay type: cell-based; settings: combination with 3.125 mmol 2-DOG versus alone
Excerpt: Since the compounds according to the invention appeared to be causing cell death by necrosis as a result of NAD/ATP depletion, it was hypothesised that their activity could be potentiated by administering the compounds with a glycolysis inhibitor. The cell killing ability of HILR-025 (SEQ ID NO: 15) and HILR-D-07 sodium salt (SEQ ID NO: 30) in the presence and absence of the glycolysis inhibitor 2-deoxyglucose (2-DOG) was therefore assayed.
NCI-H460 human non-small-cell lung cancer cells were contacted with HILR-025 or HILR-D-07 alone or in combination with 3.125 mmol 2-DOG and cell survival was determined using AlamaBlue® cell viability reagent (Life Technologies, Inc.) in accordance with the manufacturer's instructions.

[4] = tested on: Lactate Dehydrogenase A [LDHA]; experiment: LDH activity assay on lysates of treated NCI-H460 cells (Abcam ab102526); assay type: cell-based, human; settings: NCI-H460 cells treated 24 h or 96 h, normalised to protein; read-out: IC50 for inhibiting the activity of LDH
Experimental: An LDH activity assay was conducted on samples derived from NCI-H460 cells treated with 2 test compounds (HILR-025 and HILR-030) for either 24h or 96h. […] Therefore a BCA assay was conducted to estimate the total amount of protein present in each LDH assay lysate and this was used to normalise the enzyme activity data. As an indication of cell viability, an Alamar blue assay was also carried out at both timepoints, to serve as an additional point of reference.
2) Cells were harvested and seeded into 96-well plates at either 500 cells/well (for the 96h timepoint) or 5000 cells/well for the 24h timepoint. […] 6) At the end of the assay (24 or 96h), Alamar blue 10% (v/v) was added to one set of plates, incubated for a further 4 hours, and fluorescent product detected using the BMG FLUOstar plate reader. […] 10) LDH activity was measured in the cleared lysates using an LDH activity kit (Abcam, ab102526). 11) After preparation of the LDH activity assay reactions, according to the manufacturer's instructions, absorbance at 450 nm was measured at the initial time to determine (A450)initial 12) Further absorbance readings were taken at 3 minute intervals for up to 15 minutes. […] 16) The LDH activity of each sample was determined by the following equation:
[formula] […] Protein content in remaining cleared lysates was determined using a BCA assay (ThermoScientific). • b. Data were analysed using GraphPad Prism. […]

human cancer cell lines = settings: cited from earlier work; for bio-activity of cyclic peptide (active / inactive): PRGPRP warhead combined with non-amphiphilic backbone
[5] = tested on: NCI-H460 human non-small cell lung cancer cells; settings: amphiphilic backbones of different length and composition; cited from earlier work
NCI-H460 cells [6] = experiment: HILR-001 with or without 30 nM Olaparib on NCI-H460, alamarBlue and CellTiter-Glo time course; assay type: cell-based, human; settings: HILR-001 as single agent, particularly evident at later time points
Experimental: At each time point cell viability was measured by two assay readouts, alamarBlue® and CellTiter-Glo. Conversion of alamarBlue® to a fluorescent product serves as a readout of the metabolic activity of cells, whereas CellTiter-Glo is based on quantification of the ATP present.
2) Cells were harvested and seeded into 96-well plates at 500 cells/well. 3) HILR-001 was made up from a 10 mM stock solution and added directly to cells in doubling dilutions starting at 200 μM. […] The total final DMSO concentration was 0.25%. 4) Cells were grown with compound for 24, 48, 72 or 96 hours at 37° C. 5% CO2 in a humidified atmosphere. 5) AlamarBlue® 10% (v/v) was then added and incubated for a further 4 hours, and fluorescent product detected using the BMG FLUOstar plate reader. 6) On duplicate plates the media was removed from the cells, CellTiter-Glo was diluted in PBS (1:10) and 100 μl added to the cells. 7) Plates were mixed on an orbital shaker for 2 minutes and incubated for a further 10 minutes at room temperature. Luminescent signal was then measured using the BMG FLUOstar plate reader.

- IC50 (NCI-H460 cells [1]): 15 µM
Molecule: CC(C)[C@@H]1NC(=O)[C@@H]2CCCN2C(=O)[C@H](CCCNC(=N)N)NC(=O)[C@@H]2CCCN2C(=O)CNC(=O)[C@H](CCCNC(=N)N)NC(=O)[C@@H]2CCCN2C(=O)[C@H](Cc2c[nH]c3ccccc23)NC(=O)[C@H](Cc2c[nH]c3ccccc23)NC(=O)[C@H](CCCNC(=N)N)NC(=O)[C@H](CCCNC(=N)N)NC(=O)[C@H](Cc2c[nH]c3ccccc23)NC(=O)[C@H](Cc2c[nH]c3ccccc23)NC(=O)[C@H](CCCNC(=N)N)NC(=O)[C@H](CCCNC(=N)N)NC(=O)[C@H](Cc2c[nH]c3ccccc23)NC(=O)[C@H](Cc2c[nH]c3ccccc23)NC1=O [HILR-025] (cyclo(PRGPRPVWWRRWWRRWW))
- cell morphology [2]: Ring-shaped morphology
- cell killing ability with 2-DOG [3]: enhanced by co-administration with 2-DOG
- IC50 [4]: 16 µM

Molecule: Cyc-[PRGPRPvalklalkalal] [THR79]
- selective killing of human cancer cell lines (human cancer cell lines): selectively killed a wide range of human cancer cell lines

Molecule: -Pro-Glu-Gly-Pro-Glu-Pro- (PEGPEP; not fully specified; printed as -Pro-Glu-Gly-Pro-Glu-Pro-) [anionic hexapeptide, comparative peptide]
- activity of anionic hexapeptide (human cancer cell lines; linear hexapeptide, earlier study): inactive

Molecule: cyclo-[Pro-Hca-Gly-Pro-Hca-Pro-Val-Trp-Trp-Gpa-Gpa-Trp-Trp-Gpa-Gpa-Trp-Trp] (cyclo(P[Abu(4-SO3H)]GP[Abu(4-SO3H)]PVWW[Phe(4-guanidino)][Phe(4-guanidino)]WW[Phe(4-guanidino)][Phe(4-guanidino)]WW); SMILES CC(C)[C@@H]1NC(=O)[C@@H]2CCCN2C(=O)[C@H](CCS(=O)(=O)O)NC(=O)[C@@H]2CCCN2C(=O)CNC(=O)[C@H](CCS(=O)(=O)O)NC(=O)[C@@H]2CCCN2C(=O)[C@H](Cc2c[nH]c3ccccc23)NC(=O)[C@H](Cc2c[nH]c3ccccc23)NC(=O)[C@H](Cc2ccc(NC(=N)N)cc2)NC(=O)[C@H](Cc2ccc(NC(=N)N)cc2)NC(=O)[C@H](Cc2c[nH]c3ccccc23)NC(=O)[C@H](Cc2c[nH]c3ccccc23)NC(=O)[C@H](Cc2ccc(NC(=N)N)cc2)NC(=O)[C@H](Cc2ccc(NC(=N)N)cc2)NC(=O)[C@H](Cc2c[nH]c3ccccc23)NC(=O)[C@H](Cc2c[nH]c3ccccc23)NC1=O) [HILR-D-07]
- cell morphology [2]: Ring-shaped morphology
- cell killing ability with 2-DOG [3]: enhanced by co-administration with 2-DOG

Molecule: Cyc-[AAGPGGPRGPRPGGPGAA] (cyclic; cyclic peptide; (1)..(18) cyclic peptide) [SEQ ID NO: 9]
- bio-activity of cyclic peptide (active / inactive) (human cancer cell lines): SEQ ID NO: 9: Cyc-[AAGPGGPRGPRPGGPGAA]INACTIVE

Molecule: Cyc-[GGGGGGPRGPRPGGGGGG] [SEQ ID NO: 7] (cyclic; cyclic peptide; (1)..(18) cyclic peptide)
- bio-activity of cyclic peptide (active / inactive) (human cancer cell lines): SEQ ID NO: 7: Cyc-[GGGGGGPRGPRPGGGGGG]INACTIVE

Molecule: Cyc-[PRGPRPVKLALKLALKLAL] (cyclic; cyclic peptide; (1)..(19) cyclic peptide) [THR52]
- killing NCI-H460 cells (active / inactive) [5]: INACTIVE

- IC50 (NCI-H460 cells [1]): 25 µM
Molecule: CC(C)[C@@H]1NC(=O)[C@@H]2CCCN2C(=O)[C@H](CCS(=O)(=O)O)NC(=O)[C@@H]2CCCN2C(=O)CNC(=O)[C@H](CCS(=O)(=O)O)NC(=O)[C@@H]2CCCN2C(=O)[C@H](Cc2c[nH]c3ccccc23)NC(=O)[C@H](Cc2c[nH]c3ccccc23)NC(=O)[C@H](CCCNC(=N)N)NC(=O)[C@H](CCCNC(=N)N)NC(=O)[C@H](Cc2c[nH]c3ccccc23)NC(=O)[C@H](Cc2c[nH]c3ccccc23)NC(=O)[C@H](CCCNC(=N)N)NC(=O)[C@H](CCCNC(=N)N)NC(=O)[C@H](Cc2c[nH]c3ccccc23)NC(=O)[C@H](Cc2c[nH]c3ccccc23)NC1=O [HILR-D-06] (cyclo(P[Abu(4-SO3H)]GP[Abu(4-SO3H)]PVWWRRWWRRWW))

Molecule: Cyc-[PRGPRPVKLALKLALKFP] (cyclic; cyclic peptide; (1)..(18) cyclic peptide) [THR53]
- killing NCI-H460 cells (active / inactive) [5]: ACTIVE
- selective killing of human cancer cell lines (human cancer cell lines): selectively killed a wide range of human cancer cell lines

- IC50 (NCI-H460 cells [1]): 38 µM
Molecule: CC(C)[C@@H]1NC(=O)[C@@H]2CCCN2C(=O)[C@H](CCC(=O)O)NC(=O)[C@@H]2CCCN2C(=O)CNC(=O)[C@H](CCC(=O)O)NC(=O)[C@@H]2CCCN2C(=O)[C@H](Cc2c[nH]c3ccccc23)NC(=O)[C@H](Cc2c[nH]c3ccccc23)NC(=O)[C@H](CCCNC(=N)N)NC(=O)[C@H](CCCNC(=N)N)NC(=O)[C@H](Cc2c[nH]c3ccccc23)NC(=O)[C@H](Cc2c[nH]c3ccccc23)NC(=O)[C@H](CCCNC(=N)N)NC(=O)[C@H](CCCNC(=N)N)NC(=O)[C@H](Cc2c[nH]c3ccccc23)NC(=O)[C@H](Cc2c[nH]c3ccccc23)NC1=O [HILR-D-02] (cyclo(PEGPEPVWWRRWWRRWW))

Molecule: Cyc-[AAAGGGPRGPRPGGGAAA] (cyclic; Cyclic peptide; (1)..(18) cyclic peptide) [SEQ ID NO: 6]
- bio-activity of cyclic peptide (active / inactive) (human cancer cell lines): SEQ ID NO: 6: Cyc-[AAAGGGPRGPRPGGGAAA]INACTIVE

Molecule: Cyc-[GGGGGGPRGPRPGGGGGG] [SEQ ID NO: 8] (cyclic; cyclic peptide; (1)..(18) cyclic peptide)
- bio-activity of cyclic peptide (active / inactive) (human cancer cell lines): SEQ ID NO: 8: Cyc-[GGGGGGPRGPRPGGGGGG]INACTIVE

- IC50 (NCI-H460 cells [1]): 98 µM
Molecule: CC(C)C[C@@H]1NC(=O)[C@H](C)NC(=O)[C@H](C(C)C)NC(=O)[C@@H]2CCCN2C(=O)[C@H](CCCNC(=N)N)NC(=O)[C@@H]2CCCN2C(=O)CNC(=O)[C@H](CCCNC(=N)N)NC(=O)[C@@H]2CCCN2C(=O)[C@H](CC(C)C)NC(=O)[C@H](C)NC(=O)[C@H](CC(C)C)NC(=O)[C@H](CCCCN)NC(=O)[C@H](CC(C)C)NC(=O)[C@H](C)NC(=O)[C@H](CC(C)C)NC(=O)[C@H](CCCCN)NC1=O [HILR-001] (cyclo(PRGPRPVALKLALKLAL))
- killing NCI-H460 cells (active / inactive) [5]: ACTIVE
- selective killing of human cancer cell lines (human cancer cell lines): selectively killed a wide range of human cancer cell lines
- metabolic activity (alamarBlue) (NCI-H460 cells [6]): dose dependent decrease
